The test system of one experiment is C57BL/6J mice. The experiment is described as follows: Head twitch response (HTR) in mice. Type of experiment: in vivo, mouse. The following applies: for HTR in presence of MDL100,907 (volinanserin), 5-HT2A antagonist: mouse, in vivo. The protocol:
All samples were prepared the same day testing was performed. Solids were weighed into small vials and dissolved in USP grade 0.85% saline with addition of 2 molar equivalents of glacial acetic acid. Sonication and gentle heating were applied until complete dissolution. The compounds were subsequently filtered through 0.45 μm filters into a new glass vial. All compounds were administered at a 1 mg/kg subcutaneous dose at a volume of 10 mL/kg of body weight. Volinanserin hydrochloride salt (MDL 100907) was purchased from Toronto Research Chemicals.
All experimental procedures involving animals were approved by an Institutional Animal Care and Use Committee (IACUC) and adhered to principles described in the National Institutes of Health Guide for the Care and Use of Laboratory Animals. The studies were conducted at AAALAC accredited facilities. Animals received regular veterinary care (weekly by institutional veterinarians) including daily health monitoring (by experimenters) of the animals (observing home cage behaviors, nesting, and body weight). All procedures were designed to minimize any stress/distress. Healthy adult male mice C57BL/6J (8-12 weeks, 26-33 g) were purchased from the Jackson Laboratory (Bar Harbor, ME) and housed 5 mice per cage with food and water available ad libitum. Mice were maintained on a 12-h light/dark cycle (lights on 7:00-19:00) and all testing was done in the light cycle. Temperature was kept constant at 22±2° C., and relative humidity was maintained at 50±5%
The head-twitch response evaluation was performed by a trained observer who was blinded to both drug and dose. Mice were moved to the testing room 30 min before the experiment to allow for acclimation. The body weight of each mouse was recorded. Mice were administered either a 1, 3, 10, or 30 mg/kg s.c. dose of compound solution (volume of injection 260-330 μL based on body weight). […] The total number of head-twitches over the 15 minute period were recorded. Five mice were used per dose.
DOI was tested at the doses of 0.3, 1, 3, and 10 mg/kg (s.c., 5 mice per dose) and testing began immediately after administration of the compound. Ariadne was tested at the doses of 1, 3, 10, and 30 mg/kg (s.c., 5 mice per dose) and there was a 10 min interval between treatment and testing.

For experiment [1], the target named is T1, 5-HT2A (Homo sapiens, UniProt P28223). The experiment is described as follows: G protein (Gq) dissociation BRET assay. Type of experiment: cell-based. On the set-up: host or cells: HEK293T (ATCC CRL-11268). A general note: In BRET a luciferase serves as donor, and the signal depends on an acceptor being close.
T1 sequence (P28223 whole entry): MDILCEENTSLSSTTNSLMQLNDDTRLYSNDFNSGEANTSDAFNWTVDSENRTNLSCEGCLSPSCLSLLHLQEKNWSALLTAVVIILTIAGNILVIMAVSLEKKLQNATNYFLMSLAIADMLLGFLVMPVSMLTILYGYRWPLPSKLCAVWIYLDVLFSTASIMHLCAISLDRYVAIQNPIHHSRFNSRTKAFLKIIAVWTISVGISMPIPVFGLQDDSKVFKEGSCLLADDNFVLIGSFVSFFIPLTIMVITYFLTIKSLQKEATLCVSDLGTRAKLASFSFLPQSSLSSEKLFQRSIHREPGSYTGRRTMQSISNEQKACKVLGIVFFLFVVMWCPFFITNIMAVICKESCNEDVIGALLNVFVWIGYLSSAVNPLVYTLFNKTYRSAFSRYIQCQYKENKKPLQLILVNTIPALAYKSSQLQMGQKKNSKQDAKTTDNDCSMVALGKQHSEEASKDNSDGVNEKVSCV
Experiment [2] addresses T1, 5-HT2A. Description: IP1 agonism (IP1 formation assay), Cerep, Eurofins. It is filed as cell-based. On the set-up: purchased Cerep, Eurofins (contract assay). The following applies: duplicate averages only. The source says: (§1) FIGS. 8A-B Comparison of 5-HT2A (a) and 5-HT2B (b) receptor in IP1 formation assay for selected compounds, performed at Cerep, Eurofins.
(§2) IP1 agonism summary for selected compounds (duplicate averages only), performed at Cerep, Eurofins.

In another experiment the target is 5-HT2B (Homo sapiens, UniProt P41595). The experiment is described as follows: IP1 agonism (IP1 formation assay), Cerep, Eurofins. The following applies: duplicate averages only. Type of experiment: cell-based. Set-up: purchased Cerep, Eurofins (contract assay).
Chain of 5-HT2B (P41595 whole entry): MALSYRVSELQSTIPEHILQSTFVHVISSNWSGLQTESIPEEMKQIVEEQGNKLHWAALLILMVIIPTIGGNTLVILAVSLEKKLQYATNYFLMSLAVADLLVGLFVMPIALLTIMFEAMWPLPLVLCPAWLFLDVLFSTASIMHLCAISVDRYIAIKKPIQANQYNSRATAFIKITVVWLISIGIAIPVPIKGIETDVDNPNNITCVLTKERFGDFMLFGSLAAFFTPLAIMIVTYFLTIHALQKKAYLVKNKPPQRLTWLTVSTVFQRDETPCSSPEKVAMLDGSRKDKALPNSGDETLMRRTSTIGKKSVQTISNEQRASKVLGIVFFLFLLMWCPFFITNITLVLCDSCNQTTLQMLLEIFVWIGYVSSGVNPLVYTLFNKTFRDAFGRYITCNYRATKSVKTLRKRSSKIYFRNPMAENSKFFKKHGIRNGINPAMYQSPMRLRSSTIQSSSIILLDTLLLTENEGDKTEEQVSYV
Text: as §1, §2

The target of experiment [3] is T1, 5-HT2A. The experiment is described as follows: Radioligand displacement assay. It is filed as binding. Background: Loss of bound radioactivity is the signal in a displacement assay; it reports binding, not function.
Protocol: Therefore, an orthogonal assay measuring calcium flux was also performed for the 5-HT2 receptors (Klein et al., 2020).
The next experiment has as its target T2, 5-HT2C receptor (Homo sapiens, UniProt P28335).
T2 sequence (P28335 33-458): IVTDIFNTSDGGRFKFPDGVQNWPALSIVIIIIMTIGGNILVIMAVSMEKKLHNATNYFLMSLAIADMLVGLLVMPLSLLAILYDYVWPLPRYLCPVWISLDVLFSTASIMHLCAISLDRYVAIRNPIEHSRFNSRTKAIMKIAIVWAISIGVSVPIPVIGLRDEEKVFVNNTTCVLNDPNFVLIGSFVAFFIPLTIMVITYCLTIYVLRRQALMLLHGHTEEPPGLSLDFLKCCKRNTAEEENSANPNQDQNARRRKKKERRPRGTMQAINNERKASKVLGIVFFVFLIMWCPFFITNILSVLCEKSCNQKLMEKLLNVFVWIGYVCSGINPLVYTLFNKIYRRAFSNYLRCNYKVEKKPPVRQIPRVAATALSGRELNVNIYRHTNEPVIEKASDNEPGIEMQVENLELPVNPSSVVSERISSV
The experiment is described as follows: G protein (Gq) dissociation BRET assay. The following applies: for Emax: read-out: Emax, agonist activity.

For another experiment, the target named is 5-HT4 receptor (Homo sapiens, UniProt Q13639). Description: 5-HTome G protein activation BRET assay. The following applies: 5-HTome screen.
Chain of 5-HT4 receptor (Q13639 whole entry): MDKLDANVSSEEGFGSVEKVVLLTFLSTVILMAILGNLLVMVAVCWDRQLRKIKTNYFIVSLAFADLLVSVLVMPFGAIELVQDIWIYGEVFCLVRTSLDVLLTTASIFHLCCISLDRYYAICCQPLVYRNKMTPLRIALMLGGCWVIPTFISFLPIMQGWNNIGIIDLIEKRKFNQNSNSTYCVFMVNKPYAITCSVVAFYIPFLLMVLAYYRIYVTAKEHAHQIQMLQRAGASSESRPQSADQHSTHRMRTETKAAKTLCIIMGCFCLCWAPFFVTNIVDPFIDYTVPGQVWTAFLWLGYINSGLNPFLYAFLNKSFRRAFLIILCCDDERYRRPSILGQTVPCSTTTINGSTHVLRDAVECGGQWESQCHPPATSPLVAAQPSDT
Another experiment deals with 5-HT5a receptor (Homo sapiens, UniProt P47898). The experiment is described as follows: 5-HTome G protein activation BRET assay. The following applies: for agonist activity: 5-HTome screen.
Chain of 5-HT5a receptor (P47898 whole entry): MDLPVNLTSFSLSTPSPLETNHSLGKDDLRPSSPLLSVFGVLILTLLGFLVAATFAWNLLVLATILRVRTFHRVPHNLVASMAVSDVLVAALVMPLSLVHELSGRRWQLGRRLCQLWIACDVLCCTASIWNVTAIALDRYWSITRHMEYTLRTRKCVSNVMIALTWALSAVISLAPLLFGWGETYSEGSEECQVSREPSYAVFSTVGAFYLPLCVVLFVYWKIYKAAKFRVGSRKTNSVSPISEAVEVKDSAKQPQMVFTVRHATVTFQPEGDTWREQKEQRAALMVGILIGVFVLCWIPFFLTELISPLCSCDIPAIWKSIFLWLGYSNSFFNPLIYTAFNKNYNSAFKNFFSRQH
The target of another experiment is 5-HT6 receptor (Homo sapiens, UniProt P50406). Description: 5-HTome G protein activation BRET assay. The following applies: for agonist activity: 5-HTome screen.
Chain of 5-HT6 receptor (P50406 whole entry): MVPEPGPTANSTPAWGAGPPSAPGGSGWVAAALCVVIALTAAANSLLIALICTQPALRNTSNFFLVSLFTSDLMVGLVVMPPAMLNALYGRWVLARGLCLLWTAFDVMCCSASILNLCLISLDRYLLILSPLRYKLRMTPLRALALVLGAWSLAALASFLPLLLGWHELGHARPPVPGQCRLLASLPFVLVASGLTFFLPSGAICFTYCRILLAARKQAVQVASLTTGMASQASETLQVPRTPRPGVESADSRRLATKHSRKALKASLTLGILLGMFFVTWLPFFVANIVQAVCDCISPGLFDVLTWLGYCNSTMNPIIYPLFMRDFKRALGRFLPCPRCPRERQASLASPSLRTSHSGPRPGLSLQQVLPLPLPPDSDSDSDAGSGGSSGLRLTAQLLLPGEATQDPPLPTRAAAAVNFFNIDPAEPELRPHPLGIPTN
The target of a further experiment is 5-HT1E receptor (Homo sapiens, UniProt P28566). The experiment is described as follows: 5-HTome G protein activation BRET assay.
Chain of 5-HT1E receptor (P28566 whole entry): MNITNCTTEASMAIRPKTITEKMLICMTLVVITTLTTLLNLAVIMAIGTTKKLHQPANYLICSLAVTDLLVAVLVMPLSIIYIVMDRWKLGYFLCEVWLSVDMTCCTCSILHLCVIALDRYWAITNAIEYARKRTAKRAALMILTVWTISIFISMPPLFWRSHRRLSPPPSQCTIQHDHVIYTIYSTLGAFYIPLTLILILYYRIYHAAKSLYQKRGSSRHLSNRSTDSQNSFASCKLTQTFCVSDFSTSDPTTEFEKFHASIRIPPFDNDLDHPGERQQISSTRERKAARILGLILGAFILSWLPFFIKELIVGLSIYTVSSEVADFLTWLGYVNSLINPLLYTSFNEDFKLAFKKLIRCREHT
The mark [4] stands for this setting: EC50 (5-HT2A) (M), Table 7, IP1 agonism.
The mark [5] stands for this setting: EC50 (5-HT2B) (M), Table 7, IP1 agonism.
Setting [6] is: 5-HTome screen, read-out: Emax, agonist activity.
The mark [7] stands for this setting: EC50 (EC50/Gq), Gq dissociation, Gq dissociation BRET.
The mark [8] stands for this setting: EC50, agonist activity, 5-HTome screen.

Like-named read-outs stand apart in the source and are kept apart here. A value given as a limit tells only on which side of the number the result lay.

Protocol for 5-HT1E receptor: (§3) All BRET assays were conducted using BRET2 in HEK293T cells (ATCC CRL-11268; mycoplasma-free), which were subcultured in high-glucose DMEM (VWR) supplemented with 10% FBS (Life Technologies).
(§4) Constructs in G protein-dissociation BRET assays were derived from the codon-optimized Tango pcDNA3.1 library (Addgene) with V2tail/TEV/tTA encoding regions deleted to yield “de-Tango” constructs. […] All Gα-Rluc8, Beta, and GFP2-γ constructs were derived from the TRUPATH pcDNA5/FRT/TO library (Addgene).
(§5) Approximately 48 hours before assays, cells were transfected using a reverse transfection method and plated in 1% dFBS at an approximate density of 15,000 cells per well into poly-L-lysine-coated 384-well white assay plates (Grenier Bio-One). For G protein-dissociation assays, cells were transfected in a 1:1:1:1 ratio of receptor: Gα-Rluc8: Beta: GFP2-γ constructs. […] All transfections were prepared in Opti-MEM (Invitrogen) and used a 3:1 ratio of TransIT-2020 (Mirus) uL:ug total DNA.
(§6) On the day of the assay, plates were decanted and 20 uL of drug buffer per well (1×HBSS, 20 mM HEPES, pH 7.4) was added using a Multidrop (ThermoFisher Scientific), and plates were allowed to equilibrate at 37° C. in a humidified incubator before receiving drug stimulation. Drug dilutions of all compounds were performed in McCorvy buffer (1×HBSS, 20 mM HEPES, pH 7.4, supplemented with 0.3% BSA fatty acid free (GoldBio), and 0.03% ascorbic acid). […] Before reading, addition of coelenterazine 400a (5 uM final concentration; Nanolight Technology) was performed by the [sequence]. Immediately after, plates were read at 400 nm Rluc and fluorescent GFP2 emission at 510 nm for BRET2 at 0.8 second per well using a PheraStarFSX (BMB Lab Tech).
(§7) The BRET ratios of 510/400 luminescence were calculated per well and were plotted as a function of drug concentration using Graphpad Prism 5 or 9 (Graphpad Software Inc., San Diego, CA). Data were normalized to % positive control stimulation and analyzed using nonlinear regression “log(agonist) vs. response” to yield Emax and EC50 parameter estimates.
Protocol for 5-HT2C receptor: as §3, §4, §5
On the day of the assay, plates were decanted and 20 uL of drug buffer per well (1×HBSS, 20 mM HEPES, pH 7.4) was added using a Multidrop (ThermoFisher Scientific), and plates were allowed to equilibrate at 37° C. in a humidified incubator before receiving drug stimulation. Drug dilutions of all compounds were performed in McCorvy buffer (1×HBSS, 20 mM HEPES, pH 7.4, supplemented with 0.3% BSA fatty acid free (GoldBio), and 0.03% ascorbic acid). […] Next, plates were incubated at 37° C. in a humidified incubator for 60 minutes or specified time point. Before reading, addition of coelenterazine 400a (5 uM final concentration; Nanolight Technology) was performed by the [sequence]. Immediately after, plates were read at 400 nm Rluc and fluorescent GFP2 emission at 510 nm for BRET2 at 0.8 second per well using a PheraStarFSX (BMB Lab Tech).
as §7
Protocol for 5-HT4 receptor: as §3
Constructs in G protein-dissociation BRET assays were derived from the codon-optimized Tango pcDNA3.1 library (Addgene) with V2tail/TEV/tTA encoding regions deleted to yield “de-Tango” constructs. […] All Gα-Rluc8, Beta, and GFP2-γ constructs were derived from the TRUPATH pcDNA5/FRT/TO library (Addgene). […]
On the day of the assay, plates were decanted and 20 uL of drug buffer per well (1×HBSS, 20 mM HEPES, pH 7.4) was added using a Multidrop (ThermoFisher Scientific), and plates were allowed to equilibrate at 37° C. in a humidified incubator before receiving drug stimulation. […] Before reading, addition of coelenterazine 400a (5 uM final concentration; Nanolight Technology) was performed by the [sequence]. Immediately after, plates were read at 400 nm Rluc and fluorescent GFP2 emission at 510 nm for BRET2 at 0.8 second per well using a PheraStarFSX (BMB Lab Tech).
The BRET ratios of 510/400 luminescence were calculated per well and were plotted as a function of drug concentration using Graphpad Prism 5 or 9 (Graphpad Software Inc., San Diego, CA). […]
Protocol for 5-HT5a receptor: as §3, §4, §5, §6, §7
Protocol for 5-HT6 receptor: as §3, §4, §5, §6, §7

In the case of `CCC(N)Cc1cc(OC)c(C(F)(F)F)cc1OC` (racemic) [Compound 29, 1-(2,5-dimethoxy-4-(trifluoromethyl)phenyl)butan-2-amine], the “HTR in presence of MDL100,907 (volinanserin), 5-HT2A antagonist” value with C57BL/6J mice was “completely inhibited”. The “selectivity for 5-HT2A over 5-HT2B” value at 5-HT2A [1] (by Gq dissociation signaling potency) turned out to be 8 fold. The EC50 at 5-HT2A [2] (5-HT2a (IP1 agonism), Table 2) was 5e-08 M; on 5-HT2A [2] (setting [4]), 6.3e-08 M; on 5-HT2B (5-HT2b (IP1 agonism), Table 2), 6.3e-07 M; at 5-HT2B (setting [5]), 4e-07 M.

As to `CCC(N)Cc1cc(OC)c(C)cc1OC` (racemic) [Compound 32, 1-(2,5-dimethoxy-4-methylphenyl)butan-2-amine], the Ki at 5-HT2A [3] worked out at 120 nM. Besides, the “decrease in HTR count per 15 min compared to racemic DOPR” value in the experiment on C57BL/6J mice (s.c.) is listed as over 3 fold. In addition, the “dose of maximum (peak) HTR” value with C57BL/6J mice (s.c.) amounted to 10 mg/kg. For the same molecule, the Emax at 5-HT2A [1] (setting [6]) and on 5-HT2C receptor was over 70% in each case. The 50% effective concentration (EC50) at 5-HT2A [1] (setting [7]) is 185 nM; at 5-HT2A [1] (setting [8]), under 1000 nM; at 5-HT2C receptor (setting [8]), under 1000 nM; at 5-HT5a receptor, over 10000 nM; at 5-HT6 receptor, over 10000 nM; on 5-HT2A [2] (5-HT2a (IP1 agonism), Table 2) it was 1.3e-06 M. In addition, the EC50 at 5-HT2A [2] (setting [4]) is 1.8e-06 M; on 5-HT2B (5-HT2b (IP1 agonism), Table 2), over 3.2e-05 M; at 5-HT2B (setting [5]) it was 1.7e-06 M. The “signaling potency and efficacy in comparison to DOM” value at 5-HT2A [1] (Gq, G11 and β-arrestin2 pathways coupled to 5-HT2A) is “lower signaling potency and efficacy”. Besides, the agonist activity entry on 5-HT4 receptor, on 5-HT5a receptor and at 5-HT6 receptor was “Little to no agonist activity” throughout. In addition, at 5-HT1E receptor (also 5-HT1F), the “selectivity of 5-HT2 over 5-HT1E and 5-HT1F receptors” value is on record as 0.5-1 log.

Molecule `CC[C@@H](N)Cc1cc(OC)c(C)cc1OC` [(R)-Ariadne] yielded a Ki at 5-HT2A [3] of 53 nM. Further, the “HTR in presence of MDL100,907 (volinanserin), 5-HT2A antagonist” value in the experiment on C57BL/6J mice is “completely inhibited”. Besides, the “dose of maximum (peak) HTR” value in the experiment on C57BL/6J mice (s.c.) is listed as 10 mg/kg. Besides, the Emax at 5-HT2A [1] (setting [6]) was over 70%; at 5-HT2A [1] (Gq dissociation BRET, normalized to 5-HT, read-out: Emax (Emax/Gq) relative to 5-HT), 75%; at 5-HT2C receptor, over 70%; at 5-HT1E receptor, over 70%. Moreover, the concentration giving a half-maximal response (EC50) on 5-HT2A [1] (setting [7]) was 149 nM; at 5-HT2A [1] (setting [8]), under 1000 nM; on 5-HT2C receptor (EC50, Gq dissociation, Gq dissociation BRET), 249 nM; at 5-HT2C receptor (setting [8]) it was under 1000 nM; at 5-HT1E receptor, about 200 nM. Further, the agonist activity result on 5-HT4 receptor, at 5-HT5a receptor and at 5-HT6 receptor was “Little to no agonist activity” throughout.

The term EC50 denotes the concentration at which the effect is half-maximal. Low readings indicate a more potent agent, high ones a less potent agent. For orientation: Ki means the equilibrium dissociation constant of an inhibitor or competing ligand from its target. Low values mean a stronger hold on the target, high ones a looser hold on the target.

The values above are taken from US20260021061A1, “ARIADNE AND ANALOGS FOR THE TREATMENT OF NEUROLOGICAL AND NEUROMUSCLAR DISORDERS” (priority 2022, published 2026).
